From patent publication US8669206B2, “Composition and method for controlling arthropod pests” (Sumitomo Chemical Company, Limited, priority 2009, dated 2014)

Columns and labels:
Type in all cases: in vivo
Pseudaletia separata [1] = assay: Test Example 2: control of Pseudaletia separata larvae on rice seedlings, treatment at the foot of the seedlings; settings: single compound, 5 mL/cup, larvae released after 2 days, counted after 3 days
Experimental: (§1) Control rate=100×(1−[(Ts/30)/(Cs/30)]) “Equation A” Ts and Cs represent the number of surviving larvae in a treated group and that in a non-treated group, respectively. Provided that, when the control rate is less than 0 (Ts>Cs), it is indicated by 0.
(§2) The compound I was dissolved in water to prepare an aqueous solution having a prescribed concentration. Also, the compound (2) was dissolved in a mixed solution (44:1) of acetone and Tween 20, followed by dilution with water to prepare a chemical solution. These solutions were appropriately mixed to prepare a test mixed chemical solution having a prescribed concentration of the compound I and the compound (2).
(§3) A 90 mL plastic cup was filled with cultivation soil and 15 rice seeds were sown.
(§4) Two weeks after seedlings emerged, the foot of rice seedlings were treated with the test mixed chemical solution (5 mL/plastic cup). After 2 days, 30 of first-instar larvae of Pseudaletia separata were released per plastic cup. After 3 days, the number of surviving larvae was counted and the control rate was calculated using the equation A in the same manner as in Test Example 1.
(§5) For comparison, tests were conducted in the same manner using a test aqueous solution having a prescribed concentration of the compound I, prepared by diluting an aqueous solution of the compound I with water, and a test chemical solution having a prescribed concentration of the compound (2), prepared by dissolving the compound (2) in a mixed solution (1:9) of acetone and Tween 20, followed by dilution with water.

Pseudaletia separata [2] = assay: Test Example 1: control of Pseudaletia separata larvae on rice seedlings, treatment at the foot of the seedlings; settings: single compound, 5 mL/cup, larvae released after 2 days, counted after 3 days
Experimental: The compound I was dissolved in water to prepare an aqueous solution having a prescribed concentration. Also, the compound (1) (Coragen (registered trademark), product of DuPont) was diluted with water to prepare a chemical solution of the compound. These solutions were appropriately mixed to prepare a test mixed chemical solution having a prescribed concentration of the compound I and the compound (1).
as §3
as §4, with “A.” for “A in the same manner as in Test Example 1.”
as §5, with “aqueous” for “chemical”, “(1),” for “(2),”, “diluting an aqueous solution of” for “dissolving”, “(1)” for “(2) in a mixed solution (1:9) of acetone and Tween 20, followed by dilution”
as §1

Pseudaletia separata [3] = assay: Test Example 3: control of Pseudaletia separata larvae on rice seedlings treated with chemical solution and air dried; settings: single compound, 20 mL/cup, larvae released after air drying, counted after 3 days
Experimental: as §1
as §2, with “(3)” for “(2)”, “(3).” for “(2).”
A 90 mL plastic cup, was filled with cultivation soil and 15 rice seeds were sown.
as §4, with “the” for “the foot of”, “(20” for “(5”, “air dying,” for “2 days,”, “1 and Test Example 2.” for “1.”
as §5, with “(3),” for “(2),”, “(3)” for “(2)”

SMILES: CNC(=O)c1cc(C#N)cc(C)c1NC(=O)c1cc(Br)nn1-c1ncccc1Cl [Compound (2), cyantraniliprole, reference compound]
- Control rate (%) (Pseudaletia separata [1]; 1.0 ppm): 59%

SMILES: O=C(O)CCC(=O)NCCc1ccccc1 [Compound I, 4-oxo-4-[(2-phenylethyl)amino]-butyric acid]
- Control rate (%) (Pseudaletia separata [2]; 10 ppm): 0%
- Control rate (%) (Pseudaletia separata [2]; 30 ppm): 0%
- Control rate (%) (Pseudaletia separata [2]; 100 ppm): 0%
- Control rate (%) (Pseudaletia separata [1]; 30 ppm): 0%
- Control rate (%) (Pseudaletia separata [1]; 100 ppm): 0%
- Control rate (%) (Pseudaletia separata [3]; 10 ppm): 0%
- Control rate (%) (Pseudaletia separata [3]; 30 ppm): 0%
- Control rate (%) (Pseudaletia separata [3]; 100 ppm): 0%

SMILES: CNC(=O)c1cc(Cl)cc(C)c1NC(=O)c1cc(Br)nn1-c1ncccc1Cl [Compound (1), chlorantraniliprole, reference compound]
- Control rate (%) (Pseudaletia separata [2]; 1.0 ppm): 78%
- Control rate (%) (Pseudaletia separata [2]; 3.0 ppm): 87%

SMILES: CC(NC(=O)c1cc(Cl)cc(Br)c1NC(=O)c1cc(Br)nn1-c1ncccc1Cl)C1CC1 (stereo not drawn) [Compound (3), N-[2-bromo-4-chloro-6-[[α-methyl-(cyclopropylmethyl)amino]carbonyl]-phenyl]-3-bromo-1-(3-chloro-2-pyridinyl)-1H-pyrazole-5-carboxamide]
- Control rate (%) (Pseudaletia separata [3]; 0.3 ppm): 58%
